Results published in patent US20220106304A1, “Transcription Factor BRN2 Inhibitory Compounds as Therapeutics and Methods for Their Use” (The University of British Columbia, priority 2018, published 2022).

Biological target: T1, BRN2 (Homo sapiens, UniProt P20265)
T1 sequence (P20265 1-443): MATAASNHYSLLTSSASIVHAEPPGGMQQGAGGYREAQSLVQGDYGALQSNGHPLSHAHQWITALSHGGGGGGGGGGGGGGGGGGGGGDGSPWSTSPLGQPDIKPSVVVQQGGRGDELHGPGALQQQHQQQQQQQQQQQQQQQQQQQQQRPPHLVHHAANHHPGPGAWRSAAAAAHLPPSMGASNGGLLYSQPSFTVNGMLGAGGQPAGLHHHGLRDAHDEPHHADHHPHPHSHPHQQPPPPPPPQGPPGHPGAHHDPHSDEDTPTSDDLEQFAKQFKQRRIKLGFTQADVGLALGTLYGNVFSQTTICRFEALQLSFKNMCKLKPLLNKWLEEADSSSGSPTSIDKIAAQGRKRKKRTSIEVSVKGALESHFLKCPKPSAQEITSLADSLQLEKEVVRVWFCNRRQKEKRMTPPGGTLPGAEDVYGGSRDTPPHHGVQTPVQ
Assay: Drug Affinity Responsive Target Stability (DARTS) assay
Assay type: binding
Set-up: endogenous in cells; host or cells: 42D^ENZR cells
Conditions: 42D^ENZR cell lysate, yes/no direct interaction with BRN2
Experimental: This in cell assay provides a yes/no answer to direct interaction between BRN2 inhibitor and protein. • i) Prepare and place the following on ice: • Pronase • TNC 10× • −500 mM Tris-HCl (pH 8.0) • −500 mM NaCl, 100 mM CaCl2 • DMSO • Drug • 10 mL NP40+Protease inhibitor+Phosphatase inhibitor solution (can store in 4° C. and use for up to 4 weeks): • −2 mL NP40 5× • −8 mL ddH2O • −1 PhosphoSTOP™ pill • −200 uL protease inhibitor 50×
2) Remove the growth medium from the cell plate (42D^ENZR) and add 10 mL of cold PBS/vanadate.
3) Scrape the cells. Remove the PBS-cell solution and add in a falcon tube.
4) Name a new 1.5 ml Eppendorf tube and put on ice to pre-chill.
5) Centrifuge the cells at 1500 for 5 minutes at 4° C. Remove supernatant and re-suspend the cells in 600 uL NP40 lysis buffer by pipetting up and down. If the cell pellet is small use less volume, for example 300 μl)
6) Transfer the lysing cells into the pre-chilled Eppendorf tube. Incubate on ice for 20 minutes. If not continuing the DARTS on the same day, you can put the lysate in −30 and work on it later.
7) Centrifuge the tube at maximum speed for 25-30 minutes at 4° C.
8) Discard the pellet (either transfer the supernatant in a new tube or just take out the pellet). […]
20) The samples are ready for Western blot gel running. […]

| SMILES | DARTS binding |
| --- | --- |
| FC(F)(F)c1ccc2cc(-c3csc(-c4ccco4)n3)oc2c1 [VPC-18-51, 2-(Furan-2-yl)-4-(6-(trifluoromethyl)benzofuran-2-yl)thiazole] | binding |
| Clc1cc2cc(-c3csc(-c4ccc[nH]4)n3)oc2cc1Cl [VPC-18-142] | binding |
